Test results: patent US20140364454A1, “METAL-CHELATING COMPOUNDS HAVING AT LEAST ONE POLYAMINO CHAIN” (UNIVERSITE DE RENNES I, priority 2011, published 2014)
Read-outs that look alike come from different tables or passages of the source.

Experiments:
HepG2 cells [1] = assay: Cytotoxic effect on HepG2 cells, LDH release; assay type: cell-based, human; details: for influence of exogenous iron on the cytotoxic effect: HepG2, presence of exogenous iron
Description: (§1) The implication of PTS in the cytostatic and cytotoxic action of Quilamines was analyzed in proliferating HepG2 hepatocyte tumor cells after activation of PTS or competitive inhibition of PTS by spermidine, a polyamine naturally present in the organism and most efficaciously captured by the PTS. The conditions of treatment by Quilamines are identical to those described in paragraph III-1.
(§2) Inhibiting ornithine decarboxylase (ODC), the key enzyme in the biosynthesis of polyamines, causes a depletion of intra-cell polyamines and an activation of PTS which enables the deficiency to be met. This activation of PTS is done by means of the ODC inhibitor, alpha-difluoromethyl ornithine (DFMO).
(§3) The competitive inhibition of PTS by spermidine is prompted by the co-treatment of the cells by the Quilamines in the presence of spermidine, in a concentration of 50 micromoles per liter.

[2] = tested on: wild cell line (CHO) of hamster ovarian cells; assay: Anti-proliferative effect on CHO cells, counting of cell nuclei (Hoechst 33342); assay type: cell-based; details: CHO
Description: The in vitro efficacy of different Quilamines was tested on a wild cell line (CHO) of hamster ovarian cells having PTS and a mutant cell line CHO-MG without PTS. The two cell types CHO and CHO-MG were treated, 24 hours after being seeded in 96-well microplates, by concentrations of different Quilamines ranging from 0.1 to 400 micromoles per liter. The cytostatic (anti-proliferative) effects and cytotoxic effects of Quilamine after 72 hours' treatment of the cells were assessed respectively by counting cell nuclei after DNA marking by the Hoechst 33342 fluorescent intercalant dye and by analysis of membrane damage detected by the dosing of the lactate dehydrogenase activity (LHD) in the supernatants.
The IC50 inhibitor concentration corresponding to the concentration in Quilamines enables the inhibition at 50% of the cell proliferation was deduced from the dose-effect curves of numeration of the nuclei of the living cells on the CHO and CHO-MG cell lines. […] The lower the value of IC50, the greater the efficiency of the anti-proliferative effect of the tested chelators.
A comparison was made of the cytostatic or anti-proliferative action and the cytotoxic action for 72 h of treatment by Quilamine HQ1-44 and 8-hydroxyquinoline and ICL670, on the CHO cell lines in the presence and without the presence of exogenous iron, in the form of Fe(III) citrate in a concentration of 20 micromoles per liter. The results obtained are shown in FIG. 4, FIG. 4A relating to the results on cell viability and FIG. 4B relating to the results on cell toxicity.

Caco-2 cells [3] = assay: LC/MSMS of intra-cell polyamines in Caco-2 cells; assay type: cell-based, human; details: proliferating Caco-2, 10 micromoles per liter, 72 hours
Description: After treatment for 72 hours of the Caco-2 cells, in proliferative phase by Quilamine HQ1-44 and ICL670 in a concentration of 10 micromoles per liter, a biochemical analysis is carried out by tandem mass spectrometry coupled with liquid chromatography (LC/MSMS) of the intra-cell polyamines such as putrescine, spermidine and spermine, after dansylation.

Caco-2 cells [4] = assay: Biochemical analysis of intra-cell iron, L-ferritin and transferrin soluble receptor in Caco-2 cells; assay type: cell-based, human; details: 72 hours; for intra-cell iron and L-ferritin concentrations: Caco-2, 10 micromoles per liter; for transferrin-soluble receptor: Caco-2 supernatant, 10 micromoles per liter
Description: After treatment for 72 hours of the Caco-2 cells in proliferative phase by Quilamine HQ1-44 and ICL670, biochemical analysis is carried out on the intra-cell iron (Fe2+ and Fe3+), of the two main proteins for regulating iron metabolism by the dosing of the intra-cell concentrations in L-ferritin, the iron storage protein, as well as the analysis of the transferrin soluble receptor the cell supernatant, which is a marker of the concentration in transferrin receptor, the iron importing protein of the membrane.

Caco-2 cells [5] = assay: Cell viability of proliferating Caco-2 cells (number of nuclei); assay type: cell-based, human; details: for Constituent 1 (1-10 μM) % cell / Constituent 2 (10-100 μM) % cell: Caco-2 J4, no exogenous iron; for IC50: Homo sapiens, no exogenous iron
Description: (§4) The action of Quilamines on the cell viability was analyzed on enterocyte cells of the Caco-2 tumor cell line derived from human colon carcinoma and compared with the action of ICL670 in the presence or absence of exogenous iron, after activation (DFMO) or competitive inhibition by spermidine, of the PTS. The operating conditions used are identical to those used for CHO/CHO-MG and HepG2 cells.
The results for the measurement of the anti-proliferative effect of Quilamines, and of ICL670 on the proliferating cells (cytostatic constituent) when there is no exogenous iron have been listed in the table 4 below.

[6] = tested on: ODC, OAZ1, SAMDC and PAO genes; assay: RT-qPCR of polyamine metabolism genes in Caco-2 cells; assay type: cell-based, human; details: proliferating Caco-2, 10 micromoles per liter, 72 hours
Description: After treatment for 72 hours of the Caco-2 cells, in proliferative phase by Quilamine HQ1-44 and ICL670 in a concentration of 10 micromoles per liter, an analysis is carried by RT-qPCR of the expression of the main genes for regulating the metabolism of polyamines, such as ornithine decarboxylase (ODC), antizyme (OAZ1), S-adenosyl methionine decarboxylase (SAMDC) and polyamine oxydase (PAO).

Caco-2 cells [7] = assay: LDH release of Caco-2 cells; assay type: cell-based, human; details: for influence of exogenous iron on the cytotoxic effect: Caco-2, after addition of exogenous iron; for % LDH/control 10 μM: Caco-2 J4, 10 μM; for % LDH/control 100 μM: Caco-2 J4, 100 μM
Description: as §4
As in the case of the other cell lines in proliferative phase presented here above, the dose-effect curves of the action of the Quilamines on the number of viable cells (number of nuclei) are biphase curves with a cytostatic constituent for concentration values of below 30 micromoles per liter and a cytotoxic constituent with release of LDH for concentration values above 30 micromoles per liter. Only this second cytotoxic constituent is observed when the cells of the Caco-2 cell line are treated after confluence (stopping of the proliferation).

HepG2 cells [8] = assay: Anti-proliferative effect on HepG2 cells (nuclei count or SDH activity); assay type: cell-based, human; details: for IC50: Homo sapiens, HepG2, absence of exogenous iron, read-out: IC50 associated with the cytostatic effect; for IC50 / % of HepG2 cells concerned by the anti-proliferative effect: 72 h; for % of HepG2 cells concerned by the anti-proliferative effect: absence of exogenous iron
Description: The majority of the Quilamines, like ICL670, show biphase dose-effect curves in the absence of exogenous iron, with an anti-proliferative constituent for concentration values of 1 to 10 micromoles per liter and a cytotoxic constituent associated with a release of LDH for concentration values of over 10 micromoles per liter. The percentage of HepG2 cells concerned by the anti-proliferative effect and the values of IC50 associated with this cytostatic effect in the absence of exogenous iron were listed in the table 4 below.
as §1, §2, §3

[9] = Fe(III) citrate 20 micromoles per liter
[10] = 72 h treatment, no exogenous iron, read-out: IC50 CHO
[11] = Caco-2 J4, cytostatic constituent, read-out: Constituent 1 (1-10 μM) IC50
[12] = Caco-2 J4, cytotoxic constituent, read-out: Constituent 2 (10-100 μM) IC50

IC50 (Caco-2 cells [5]; [11]) [nM] | % LDH/control 10 μM (Caco-2 cells [7]) [%] | % LDH/control 100 μM (Caco-2 cells [7]) [%] | IC50 (HepG2 cells [8]) [nM] | Structure (SMILES) | influence of exogenous iron on the cytotoxic effect (HepG2 cells [1]) | influence of exogenous iron on the cytostatic (anti-proliferative) effect [2, 9] | IC50 [2, 10] [nM] | change of intra-cell concentration of putrescine (Put) (Caco-2 cells [3]) [%] | change of intra-cell concentration of spermidine (Spd) (Caco-2 cells [3]) [%] | intra-cell iron and L-ferritin concentrations (Caco-2 cells [4]) | transferrin-soluble receptor (Caco-2 cells [4]) | Constituent 1 (1-10 μM) % cell (Caco-2 cells [5]) [%] | Constituent 2 (10-100 μM) % cell (Caco-2 cells [5]) [%] | IC50 (Caco-2 cells [5]; [12]) [nM] | expression of the genes of polyamine metabolism (ODC, OAZ1, SAMDC, PAO) [6] | influence of exogenous iron on the cytotoxic effect (Caco-2 cells [7]) | % of HepG2 cells concerned by the anti-proliferative effect (HepG2 cells [8]) [%] | also measured
1700 | 117 | 130 | 3850 | O=C(O)c1ccc(-n2nc(-c3ccccc3O)nc2-c2ccccc2O)cc1 [ICL670, reference compound] | inhibition | inhibition | 9200 | −34 | −15 | intra-cell iron depletion | no significant effect | 18 | 82 | 90000 | no effect | inhibition | 72.5 | concentration of the cytotoxic constituent associated with release of LDH (HepG2 cells [1]; HepG2, absence of exogenous iron): over 10 micromoles per liter; influence of exogenous iron on the cytostatic effect (Caco-2 cells [5]; Caco-2, after addition of exogenous iron): inhibition
1300 | 118 | 287 | 2750 | NCCCCNCCCCNCc1ccc2cccc(O)c2n1 [HQ1-44, 2-[4-(4-aminobutyl)aminobutyl]aminomethylquinolin-8-ol] | partially inhibited | improvement | 1400 | −73 | −55 | intra-cell iron depletion | no significant effect | 70 | 30 | 20000 | no effect | partially inhibited | 30 | influence of PTS activation by DFMO pre-treatment on cytotoxicity (HepG2 cells [1]; HepG2, concentrations greater than 50 micromoles per liter (50-100)): amplification; influence of competitive inhibition of PTS by spermidine on the cytotoxic effects (HepG2 cells [1]; HepG2, spermidine 50 micromoles per liter, Quilamine 50 to 100 micromoles per liter): inhibition; IC50 ([2]; Fe(III) citrate 20 micromoles per liter, 72 h, read-out: IC50 CHO in the presence of exogenous iron): 600 nM; effect on intra-cell spermine (Spm) (Caco-2 cells [3]): absence of an effect; influence of competitive inhibition of PTS by spermidine on the cytostatic effects (HepG2 cells [8]; HepG2, spermidine 50 micromoles per liter, Quilamine below 10 micromoles per liter): inhibition
